Columns and labels:
[1] = pH of various magnesium salts in a water solution; format: physicochemical; conditions: 12% in water
Method: The pH of magnesium carbonate, partially carbonated magnesium hydroxide, magnesium hydroxide and magnesium oxide were taken in a water solution. The pH values were recorded as follows in Table 4.

[2] = test system: Corynebacterium mucofaciens (clinical isolate); experiment: Tier 1 Anaerobic MIC Assay; format: cell-based; conditions: raw material, BHI with 1% Tween 80, 37° C. overnight, O.D. 600
Method: (§1) Tier 1 Anaerobic MIC Assay
(§2) The data in Table 1 above was generated with the following test method. The purpose of this assay is to determine if a compound or formulation has an antimicrobial effect in vitro.
(§3) Procedure: (All procedures performed in anaerobic chamber except where noted)
(§4) Incubator at 37° C.; 20-200 ul 12 channel pipette; 5-50 ul 12 channel pipette; 1250 ul 8 channel Thermo Scientific Matrix pipette; 96 well plate shaker (located in incubator); Beckman Coulter deep well cap mat #267005; Beckman Coulter deep 96 well plates #267007; Falcon 96 well tissue culture plates #353072; Vortexer; Culture tubes/caps Disposable sterile gloves; Sterile petri dishes; Standard microbiological lab equipment (sterile pipettes, syringes, tips, loops, etc.); Glass bottles/flasks for media; Autoclave; Parafilm; Spectrophotometer.
(§5) BHI agar supplemented with 1% Tween 80
(§6) BHI media supplemented with 1% Tween 80
Corynebacterium mucofaciens (clinical isolate)
(§7) Prior to testing streak organisms for isolation on BHI with 1% Tween 80 plates, wrap with parafilm and place in 37° C. incubator. When isolated colonies appear remove one representative colony from each plate and place each in 5 ml of BHI with 1% Tween 80 media. […]
(§8) In row A of a 96 deep well plate pipette 180 ul of sterile BHI with 1% Tween 80 as a negative growth control. […] The next day read the O.D. 600 on a plate reader. […]

[3] = test system: Staphylococcus epidermidis (clinical isolate); experiment: Tier 1 Anaerobic MIC Assay; format: cell-based; conditions: raw material, BHI with 1% Tween 80, 37° C. overnight, O.D. 600
Method: as §1, §2, §3, §4, §5, §6
Staphylococcus epidermidis (clinical isolate)
as §7, §8

Row | microbial inhibition concentration (MIC), C. mucofaciens [2] | microbial inhibition concentration (MIC), S. epidermidis [3] | Compound | pH in water 12% Solution [1] | pH in water 12% Solution ([1]; listed as Magnesium oxide)
1 |  |  | O=C([O-])[O-].[Mg+2] [Magnesium Carbonate] | 9.6 | 
2 |  |  | [Mg+2].[OH-].[OH-] [Magnesium Hydroxide] | 10 | 
3 |  |  | [O]=[Mg] [Magnesium Oxide] | 10.8 | highest pH observed
4 | <5 ppm | 10 ppm | Cc1cc(CC(C)CC(C)(C)C)n(O)c(=O)c1.NCCO (stereo not drawn) [piroctone olamine] |  | 

— patent US12161738B2, “Deodorant compositions” (The Procter & Gamble Company, priority 2019, dated 2024)
